This passage reports TGI results from PubChem BioAssay (NCI).

SMILES strings stand for the structures.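 Step 1: Grow cells in 96-well plates. Step 2: Expose to compound for 48 hours at 5 concentrations. Step 3: Interpolate endpoints linearly; if unreached, use highest concentration. TGI marks complete inhibition of growth.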 Bounds are passed on as bounds.

Among the test systems are NCI-H23 lung; NCI-H226 lung; A549 NSCLC; SNB-75 CNS; HCT-116 colon; TK-10 renal; SN12C renal; COLO 205 colon; HCC-2998 colon; HS 578T breast; T-47D breast; KM12 colon; MALME-3M melanoma.
What all share (assay): inhibition of tumour cell growth, NCI panel, 48 h

`Oc1c(C(O)(c2ccccc2)c2ccc3ccccc3c2O)ccc2ccccc12`: the TGI in the assay with NCI-H23 lung stood at 23.1 µM; with NCI-H226 lung, 36.5 µM; with A549 NSCLC, 30.4 µM; with SNB-75 CNS, 34.5 µM; in the assay with HCT-116 colon it was 21.8 µM; in the assay with TK-10 renal it was 26.8 µM. Moreover, the TGI in the assay with SN12C renal turned out to be 23.1 µM; in the assay with COLO 205 colon it was 31.9 µM; in the assay on HCC-2998 colon, 20 µM; in the assay with HS 578T breast it was 27.8 µM; in the assay with T-47D breast it was 32.5 µM; in the assay on KM12 colon, 25.4 µM. For the same compound, the TGI with MALME-3M melanoma is 26.4 µM.

`CCCCCCCCCc1cc(O)c(O)cc1CCCCCCCCC`: the TGI in the assay on NCI-H23 lung, with NCI-H226 lung, in the assay with A549 NSCLC, in the assay with SNB-75 CNS, in the assay on HCT-116 colon and with TK-10 renal was above 10 µM each time. Besides, the TGI in the assay on SN12C renal, in the assay with COLO 205 colon, in the assay on HCC-2998 colon, with HS 578T breast, in the assay on T-47D breast and with KM12 colon was above 10 µM throughout. In the assay on MALME-3M melanoma, this compound showed a TGI above 10 µM.
